Assay results reported in US20140366440A1, “METHOD FOR PRODUCING CLONE SEEDLINGS” (OKAYAMA PREFECTURE, priority 2009, published 2014).

Legend:
[1] = test system: Tea plant; assay: Rooting of tea plant cuttings, granule oxidized glutathione mixed with composite soil; type: in vivo; conditions: mix with soil; for Rooting rate (%): 462 test pieces; for Number of rooted shoots: of 462 test pieces
Experimental: Oxidized glutathione was prepared in such a way that 1% granule oxidized glutathione was mixed with a composite soil was used. Specifically, 1% granule oxidized glutathione of 15 g was mixed with a composite soil of peat moss and vermiculite (5.5 L), and was then put into a seedling pot (3 cm in inner diameter×15 cm in height×66 holes). This seedling pot served as a supporter. A four-diluted MS medium (Composition: ammonium nitrate of 412.5 mg/L, potassium nitrate of 475 mg/L, sodium dihydrogenphosphate of 42.52 mg/L, and potassium iodide of 0.21 mg/L. Note that a carbon source was not added to this medium.) to which IBA serving as a plant hormone of 10 mg/L was added was sprayed from the above the seedling pot by use of a watering can so that the supporter was soaked with the four-diluted MS medium.
Tea plant was used as a material for a cutting. Specifically, a cutting grown to have a length of about 5 cm to 20 cm, about one to three joints, about one to six leaves was cut out from a mother tree, and a tip of each leaf was cut off. In this way, the cutting was adjusted and prepared.
A base of the cutting thus adjusted and prepared was planted to a supporter (66 cuttings were planted per seedling pot). After this planting, the shoot was cultured for one and half months in a carbon dioxide gas concentration of 1000 ppm, a temperature of 25° C., and a humidity of 60% having a wavelength component of 650 nm to 670 nm to a wavelength component of 450 nm to 470 nm at a ratio of 8.2:1.8 under irradiation of red light having photosynthesis photon flux density of 51.3 μmol/m^2/S. After that, the seedling pot was moved to a green house, and was bred for two and half months. In the green house, a high humidity (80% or more) was kept by frequently spraying mist. After two and half month from this moving, a rooting rate was calculated from the number of rooted cuttings.
The culture was carried out in the same way as Example 12, except that an amount of 1% granule oxidized glutathione to be added to a composite soil (5.5 L) was set to 75 g.

[2] = test system: Mango (Mangifera Indica Linn. variety name: Irwin); assay: Rooting of mango cuttings in rooting medium containing oxidized glutathione; type: in vivo; conditions: one and half months
Description: A mango (Mangifera Indica Linn. variety name: Irwin) was used as a material of a cutting. Specifically, a cutting including one to three joints and one to five leaves was cut from a branch of a mother tree, and each leaf was partially cut off. Furthermore, the material was wounded by a cutter. The cutting was thus prepared.
The shoot thus obtained was washed with running water over night, and was dipped into an insecticide solution such as “Kotetsu”. Then the shoot had been planted to a supporter infiltrated with a four-diluted MS medium (Composition: ammonium nitrate of 412.5 mg/L, potassium nitrate of 475 mg/L, sodium dihydrogenphosphate of 42.52 mg/L, potassium iodide of 0.21 mg/L, etc. Note that a carbon source other than glutathione was not added to this medium.) to which the oxidized glutathione of 50 mg/L, STS (AgS4O6) of 5 μM serving as a silver ion source, ascorbic acid of 50 mg/L serving an antioxidant, and IBA of 10 mg/L serving as a plant hormone were added. In this case, natural soil such as sand and akadama soil; or a composite soil of vermiculite, perlite, peat moss, etc. was used as the supporter. […]
Ten to twenty shoots were planted per culture container. A rooting rate was calculated from the number of test pieces of the shoot and the number of shoots (the number of rooted shoots) which had been rooted after the foliage was cultured for one and half months.

[3] = test system: E. globulus (Clone I); assay: Rooting of shoots with wounded base, line whose rooting is extremely difficult; type: in vivo, Eucalyptus globulus; conditions: Example 22: 50 mg/L in medium
Experimental: (§1) A base of the shoot thus obtained was planted to a foaming phenolic resin porous supporter (Manufactured by Smithers-Oasis Company; Product name: Oasis). […] The base of the shoot was cultured for two months in carbon dioxide gas of 1000 ppm at a temperature of 25° C. under irradiation of red light having photosynthesis photon flux density of 51.3 μmol/m^2/S and having a wavelength component of 650 nm to 670 nm to a wavelength component of 450 nm to 470 nm at a ratio of 8.2:1.8. The culturing was carried out with a culture container, which was a cube container (maximum size of about 10 cm to 11.5 cm in length×10 cm to 11.5 cm in width×10.0 cm in height) having a shape whose bulge was slightly protruded. […] Carbon dioxide gas outside the culture container was allowed to enter the culture container through this carbon dioxide gas permeable membrane covering the opening. Accordingly, carbon dioxide gas concentration inside the culture container was about 1000 ppm due to the permeation of the carbon dioxide gas through the film covering the opening of the culture container. The culture container was irradiated with red light by use of a light irradiation device (Product name: CCFL unit, maker's name: Nippon Medical& Chemical Instruments CO., LTD.). Further, humidity in the culture container is adjusted by sealing the culture container with Parafilm.
(§2) Nine shoots were planted per culture container. A rooting rate was calculated from the number of test pieces of the shoot and the number of shoots (the number of rooted shoots) which had been rooted after the foliage was cultured for two months.

[4] = test system: E. globulus (Clone H); assay: as above; type: in vivo, Eucalyptus globulus; conditions: Example 21: 50 mg/L in medium
Experimental: as §1, §2

[5] = test system: E. globulus (Clone G); assay: as above; type: in vivo, Eucalyptus globulus; conditions: Example 20: 50 mg/L in medium
Experimental: as §1, §2

With oxidized glutathione the “Rooting rate (%)” value ([1]; Example 12: 3 mg/L in composite soil (15 g of 1% granule per 5.5 L)) was 96.0%, the “Number of rooted shoots” value ([1]; Example 12: 3 mg/L in composite soil) was 443 and the “Rooting rate (%)” value ([1]; Example 13: 15 mg/L in composite soil (75 g of 1% granule per 5.5 L)) was 99.6%. For the same substance, the “Number of rooted shoots” value ([1]; Example 13: 15 mg/L in composite soil) was 461, the “Number of rooted shoots” value ([2]; Example 11: 50 mg/L in rooting medium, of 26 test pieces) was 7 and the “Rooting rate (%)” value ([2]; Example 11: 50 mg/L, adding glutathione to rooting medium (with STS, ascorbic acid, IBA 10 mg/L), 26 test pieces) was 26.9%. The “Rooting rate (%)” value ([3]; 5 test pieces) was 20.0%, the “Number of rooted shoots” value ([3]; of 5 test pieces) was 1 and the “Rooting rate (%)” value ([4]; 5 test pieces) was 40.0%. For the same substance, the “Number of rooted shoots” value ([4]; of 5 test pieces) was 2, the “Rooting rate (%)” value ([5]; 18 test pieces) was 33.3% and the “Number of rooted shoots” value ([5]; of 18 test pieces) was 6.
